Columns and labels:
NCI-H522 = test: NCI60 five-dose screen, Non-small Cell Lung Cancer; type: cell-based; settings: Homo sapiens; NCI-H522, Non-small Cell Lung Cancer; five-dose screen; read-out: GI50
BT-549 = test: NCI60 one-dose screen (10 μM), Breast Cancer; type: cell-based; settings: Homo sapiens; 10 μM; BT-549, Breast Cancer; read-out: Growth percent rate
RXF 393 = test: NCI60 one-dose screen (10 μM), Renal Cancer; type: cell-based, human; settings: Homo sapiens; 10 μM; RXF 393, Renal Cancer; read-out: Growth percent rate
UACC-62 = test: NCI60 one-dose screen (10 μM), Melanoma; type: cell-based; settings: Homo sapiens; 10 μM; UACC-62, Melanoma; read-out: Growth percent rate
NCI/ADR-RES [1] = test: NCI60 five-dose screen, Ovarian Cancer; type: cell-based; settings: Homo sapiens, Ovarian Cancer, five-dose screen, read-out: GI50
MCF7 = test: NCI60 five-dose screen, Breast Cancer; type: cell-based; settings: Homo sapiens; MCF7, Breast Cancer; five-dose screen; read-out: GI50
SN12C = test: NCI60 five-dose screen, Renal Cancer; type: cell-based; settings: Homo sapiens, Renal Cancer, five-dose screen, read-out: GI50
COLO 205 [2] = test: NCI60 five-dose screen, Colon Cancer; type: cell-based; settings: Homo sapiens; COLO 205, Colon Cancer; five-dose screen; read-out: GI50
SW-620 = test: NCI60 five-dose screen, Colon Cancer; type: cell-based; settings: Homo sapiens; SW-620, Colon Cancer; five-dose screen; read-out: GI50
HL-60(TB) = test: NCI60 five-dose screen, Leukemia; type: cell-based; settings: Homo sapiens; HL-60(TB), Leukemia; five-dose screen; read-out: GI50
MALME-3M = test: NCI60 five-dose screen, Melanoma; type: cell-based; settings: Homo sapiens; MALME-3M, Melanoma; five-dose screen; read-out: GI50
T-47D [3] = test: NCI60 five-dose screen, Breast Cancer; type: cell-based; settings: Homo sapiens, T47D; T-47D, Breast Cancer; five-dose screen; read-out: GI50
COLO 205 [4] = test: NCI60 one-dose screen (10 μM), Colon Cancer; type: cell-based, human
UO-31 = test: NCI60 one-dose screen (10 μM), Renal Cancer; type: cell-based; settings: Homo sapiens; 10 μM; UO-31, Renal Cancer; read-out: Growth percent rate
DU-145 = test: NCI60 five-dose screen, Prostate Cancer; type: cell-based; settings: Homo sapiens; DU-145, Prostate Cancer; five-dose screen; read-out: GI50
NCI-H23 = test: NCI60 five-dose screen, Non-small Cell Lung Cancer; type: cell-based; settings: Homo sapiens; NCI-H23, Non-small Cell Lung Cancer; five-dose screen; read-out: GI50
NCI-H226 [5] = test: NCI60 one-dose screen (10 μM), Non-small Cell Lung Cancer; type: cell-based; settings: Homo sapiens; 10 μM; NCI-H226, Non-small Cell Lung Cancer; read-out: Growth percent rate
SK-OV-3 [6] = test: NCI60 one-dose screen (10 μM), Ovarian Cancer; type: cell-based; settings: Homo sapiens; 10 μM; SK-OV-3, Ovarian Cancer; read-out: Growth percent rate
NCI-H226 [7] = test: NCI60 five-dose screen, Non-small Cell Lung Cancer; type: cell-based; settings: Homo sapiens; NCI-H226, Non-small Cell Lung Cancer; five-dose screen; read-out: GI50
OVCAR-5 [8] = test: NCI60 one-dose screen (10 μM), Ovarian Cancer; type: cell-based; settings: Homo sapiens; 10 μM; OVCAR-5, Ovarian Cancer; read-out: Growth percent rate
TK-10 = test: NCI60 five-dose screen, Renal Cancer; type: cell-based; settings: Homo sapiens; TK-10, Renal Cancer; five-dose screen; read-out: GI50
CCRF-CEM = test: NCI60 five-dose screen, Leukemia; type: cell-based; settings: Homo sapiens, Leukemia, five-dose screen, read-out: GI50
HCC-2998 = test: NCI60 five-dose screen, Colon Cancer; type: cell-based; settings: Homo sapiens; HCC-2998, Colon Cancer; five-dose screen; read-out: GI50
SF-539 = test: NCI60 one-dose screen (10 μM), CNS Cancer; type: cell-based, human; settings: Homo sapiens; 10 μM; SF-539, CNS Cancer; read-out: Growth percent rate
HS 578T = test: NCI60 one-dose screen (10 μM), Breast Cancer; type: cell-based; settings: Homo sapiens; 10 μM; HS 578T, Breast Cancer; read-out: Growth percent rate
ACHN = test: NCI60 five-dose screen, Renal Cancer; type: cell-based; settings: Homo sapiens, Renal Cancer, five-dose screen, read-out: GI50
OVCAR-3 = test: NCI60 five-dose screen, Ovarian Cancer; type: cell-based; settings: Homo sapiens; OVCAR-3, Ovarian Cancer; five-dose screen; read-out: GI50
A498 = test: NCI60 five-dose screen, Renal Cancer; type: cell-based; settings: Homo sapiens; A498, Renal Cancer; five-dose screen; read-out: GI50
SNB-75 = test: NCI60 five-dose screen, CNS Cancer; type: cell-based; settings: Homo sapiens; SNB-75, CNS Cancer; five-dose screen; read-out: GI50
NCI/ADR-RES [9] = test: NCI60 one-dose screen (10 μM), Ovarian Cancer; type: cell-based; settings: Homo sapiens, 10 μM, Ovarian Cancer, read-out: Growth percent rate
786–0 = test: NCI60 five-dose screen, Renal Cancer; type: cell-based; settings: Homo sapiens; 786–0, Renal Cancer; five-dose screen; read-out: GI50
SK-OV-3 [10] = test: NCI60 five-dose screen, Ovarian Cancer; type: cell-based; settings: Homo sapiens; SK-OV-3, Ovarian Cancer; five-dose screen; read-out: GI50
IGROV1 = test: NCI60 five-dose screen, Ovarian Cancer; type: cell-based; settings: Homo sapiens, IGROV-1; IGROV1, Ovarian Cancer; five-dose screen; read-out: GI50
SR = test: NCI60 one-dose screen (10 μM), Leukemia; type: cell-based; settings: Homo sapiens, 10 μM, Leukemia, read-out: Growth percent rate
HOP-92 [11] = test: NCI60 five-dose screen, Non-small Cell Lung Cancer; type: cell-based; settings: Homo sapiens; HOP-92, Non-small Cell Lung Cancer; five-dose screen; read-out: GI50
T-47D [12] = test: NCI60 one-dose screen (10 μM), Breast Cancer; type: cell-based; settings: Homo sapiens, T47D; 10 μM; T-47D, Breast Cancer; read-out: Growth percent rate
PC-3 = test: NCI60 one-dose screen (10 μM), Prostate Cancer; type: cell-based; settings: Homo sapiens; 10 μM; PC-3, Prostate Cancer; read-out: Growth percent rate
NCI-H460 = test: NCI60 five-dose screen, Non-small Cell Lung Cancer; type: cell-based; settings: Homo sapiens; NCI-H460, Non-small Cell Lung Cancer; five-dose screen; read-out: GI50
HCT-15 = test: NCI60 one-dose screen (10 μM), Colon Cancer; type: cell-based; settings: Homo sapiens; 10 μM; HCT-15, Colon Cancer; read-out: Growth percent rate
LOX IMVI = test: NCI60 one-dose screen (10 μM), Melanoma; type: cell-based, human; settings: Homo sapiens; 10 μM; LOX IMVI, Melanoma; read-out: Growth percent rate
KM12 = test: NCI60 five-dose screen, Colon Cancer; type: cell-based; settings: Homo sapiens; KM12, Colon Cancer; five-dose screen; read-out: GI50
MDA-MB-468 = test: NCI60 one-dose screen (10 μM), Breast Cancer; type: cell-based; settings: Homo sapiens; 10 μM; MDA-MB-468, Breast Cancer; read-out: Growth percent rate
HOP-92 [13] = test: NCI60 one-dose screen (10 μM), Non-small Cell Lung Cancer; type: cell-based; settings: Homo sapiens; 10 μM; HOP-92, Non-small Cell Lung Cancer; read-out: Growth percent rate
OVCAR-5 [14] = test: NCI60 five-dose screen, Ovarian Cancer; type: cell-based; settings: Homo sapiens; OVCAR-5, Ovarian Cancer; five-dose screen; read-out: GI50
CAKI-1 = test: NCI60 five-dose screen, Renal Cancer; type: cell-based; settings: Homo sapiens; CAKI-1, Renal Cancer; five-dose screen; read-out: GI50
MDA-MB-231/ATCC = test: NCI60 one-dose screen (10 μM), Breast Cancer; type: cell-based, human; settings: Homo sapiens; 10 μM; MDA-MB-231/ATCC, Breast Cancer; read-out: Growth percent rate

CC[C@]12C=CCN3CC[C@@]4(c5ccc(OC)cc5N(C)[C@H]4[C@@](O)(C(=O)OC)[C@@H]1OC(=O)CCC(=O)N1CCN(c4ccc(C(F)(F)F)cc4)CC1)[C@@H]32 [Compound 28] showed a GI50 (NCI-H522) of 3.24 µM, an activity at 10 µM (BT-549) of 12.9% and an activity at 10 µM (RXF 393) of -12.9%. For the same compound, the activity at 10 µM (UACC-62) was -75.8%, the GI50 (NCI/ADR-RES [1]) was 3.31 µM and the GI50 (MCF7) was 2.95 µM. It also gave a GI50 (SN12C) of 4.17 µM, a GI50 (COLO 205 [2]) of 1.91 µM and a GI50 (SW-620) of 3.98 µM. It also gave a GI50 (HL-60(TB)) of 1.45 µM, a GI50 (MALME-3M) of 5.37 µM and a GI50 (T-47D [3]) of 3.55 µM. For the same compound, the growth percent rate (COLO 205 [4]; 10 μM one-dose, COLO-205 colon cancer, negative = lethality) was −90.33%, the activity at 10 µM (COLO 205 [4]; Homo sapiens, 10 μM, COLO 205, Colon Cancer, read-out: Growth percent rate) was -90.3% and the activity at 10 µM (UO-31) was 10.3%. The GI50 (DU-145) was 5.25 µM, the GI50 (NCI-H23) was 4.37 µM and the activity at 10 µM (NCI-H226 [5]) was 14.9%. For the same compound, the activity at 10 µM (SK-OV-3 [6]) was 37.5%, the GI50 (NCI-H226 [7]) was 3.16 µM and the activity at 10 µM (OVCAR-5 [8]) was 2.55%. The GI50 (TK-10) was 4.07 µM, the GI50 (CCRF-CEM) was 1.66 µM and the GI50 (HCC-2998) was 2.4 µM. For the same compound, the activity at 10 µM (SF-539) was 8.28%, the activity at 10 µM (HS 578T) was 20.1% and the GI50 (ACHN) was 3.8 µM. The GI50 (OVCAR-3) was 3.72 µM, the GI50 (A498) was 5.75 µM and the GI50 (SNB-75) was 2 µM. It also gave an activity at 10 µM (NCI/ADR-RES [9]) of 5.44%, a GI50 (786–0) of 5.01 µM and a GI50 (SK-OV-3 [10]) of 3.89 µM. For the same compound, the GI50 (IGROV1) was 3.31 µM, the activity at 10 µM (SR) was 18.4% and the GI50 (HOP-92 [11]) was 2.09 µM. It also gave an activity at 10 µM (T-47D [12]) of 38.4%, an activity at 10 µM (PC-3) of 3.75% and a GI50 (NCI-H460) of 3.31 µM. It also gave an activity at 10 µM (HCT-15) of 6.71%, an activity at 10 µM (LOX IMVI) of -75.8% and a GI50 (KM12) of 4.79 µM. It also gave an activity at 10 µM (MDA-MB-468) of -42.8%, an activity at 10 µM (HOP-92 [13]) of -3.33% and a GI50 (OVCAR-5 [14]) of 5.25 µM. It also gave a GI50 (CAKI-1) of 2 µM and an activity at 10 µM (MDA-MB-231/ATCC) of -47%.
